Results from PMC9944328 (Nature Communications, 2023).
Where two headings read alike, the source gives them in different places.

Tested on: SSTR2 mutants
Experiment: SSTRs Gi-mediated cAMP inhibition, GloSensor, HEK293, 5 μM forskolin, 15 min room temperature (SSTR2 mutants)
Format: cell-based, human
Procedure: The levels of the intracellular 3′, 5′-cyclic AMP (cAMP) were measured by the GloSensor cAMP assay (Promega) as described in the previous studies[28],[41] which has been widely used. The human full-length SSTRs and mutants were cloned into the pcDNA3.1+ vector with a HA signal sequence followed by a Flag tag at the N-terminus. HEK293 cells (ATCC, CRL-1573) were seeded into 6-well microplates at a density of 1.0 × 10^6 cells/well and cultured for 24 h at 37 °C with 5% CO2. Cells were then co-transfected with SSTR wild-type or mutants and GloSensor plasmids. After 24 h of transfection, the cells were dissociated with TrypLE™ Express Enzyme (1X) (Thermo Fisher Scientific) and collected by centrifugation at 500 × g for 5 min. Then the collected cells were suspended in Hank’s balanced salt solution [HBSS (Thermo Fisher Scientific)] supplemented with […] (YEASEN), and then the suspension cells were seeded into 96-well plates with 90 μl/well. After incubating at room temperature for 40 min, 5 μM forskolin and ligands diluted in HBSS were added to each well and the plates were incubated at room temperature for 15 min. […] were measured using the Synergy H1 microplate reader (BioTek) and the data presented are means of at least three independent experiments.

[1] = cAMP inhibition best-fit, F127A-1
[2] = cAMP inhibition best-fit, F127A-2
[3] = cAMP inhibition best-fit, F127A-3
[4] = cAMP inhibition best-fit, I130A-1
[5] = cAMP inhibition best-fit, I130A-2
[6] = cAMP inhibition best-fit, I130A-3
[7] = cAMP inhibition best-fit, Q102A-1
[8] = cAMP inhibition best-fit, Q102A-2
[9] = cAMP inhibition best-fit, Q102A-3
[10] = cAMP inhibition best-fit, V103A-1
[11] = cAMP inhibition best-fit, V103A-2
[12] = cAMP inhibition best-fit, V103A-3

SMILES: N#Cc1cccc(-c2ccc3ncc(-c4cc(F)cc(F)c4)c(N4CCC(N)CC4)c3c2)c1O [paltusotine]
- LogEC50 (best-fit value), cAMP inhibition (Y302A-1 (run 1)): -7.774
- Span (best-fit value), cAMP inhibition (Y302A-1 (run 1)): 45.84
- Top (best-fit value), cAMP inhibition (Y302A-1 (run 1)): 51.54
- Bottom (best-fit value), cAMP inhibition (Y302A-2 (run 2)): 6.053
- LogEC50 (best-fit value), cAMP inhibition (Y302A-2 (run 2)): -7.903
- Span (best-fit value), cAMP inhibition (Y302A-2 (run 2)): 53.55
- Top (best-fit value), cAMP inhibition (Y302A-2 (run 2)): 59.6
- Bottom (best-fit value), cAMP inhibition (Y302A-3 (run 3)): 6.125
- LogEC50 (best-fit value), cAMP inhibition (Y302A-3 (run 3)): -8.216
- Span (best-fit value), cAMP inhibition (Y302A-3 (run 3)): 50.13
- Top (best-fit value), cAMP inhibition (Y302A-3 (run 3)): 56.25
- Bottom [1]: 3.363
- EC50 [1]: 0.994 nM
- LogEC50 [1]: -9.003
- Span [1]: 99.71
- Top [1]: 103.1
- Bottom [2]: -15.5
- EC50 [2]: 0.816 nM
- LogEC50 [2]: -9.089
- Span [2]: 125.3
- Top [2]: 109.8
- Bottom [3]: 3.745
- EC50 [3]: 0.665 nM
- LogEC50 [3]: -9.177
- Span [3]: 105.4
- Top [3]: 109.1
- Bottom [4]: 11.53
- EC50 [4]: 17.8 nM
- LogEC50 [4]: -7.749
- Span [4]: 105
- Top [4]: 116.5
- Bottom [5]: 16.26
- EC50 [5]: 15.1 nM
- LogEC50 [5]: -7.822
- Span [5]: 108.4
- Top [5]: 124.7
- Bottom [6]: 6.76
- EC50 [6]: 23.9 nM
- LogEC50 [6]: -7.621
- Span [6]: 101.4
- Top [6]: 108.2
- EC50 [7]: 43.6 nM
- LogEC50 [7]: -7.36
- Span [7]: 102.2
- Top [7]: 104
- EC50 [8]: 28.2 nM
- LogEC50 [8]: -7.55
- Span [8]: 100.8
- Top [8]: 101.3
- EC50 [9]: 21.3 nM
- LogEC50 [9]: -7.671
- Span [9]: 85.31
- Top [9]: 86.48
- Bottom [10]: 9.955
- EC50 [10]: 90.2 nM
- LogEC50 [10]: -7.045
- Span [10]: 84.48
- Top [10]: 94.43
- Bottom [11]: -12.27
- EC50 [11]: 7.12 nM
- LogEC50 [11]: -8.147
- Span [11]: 105.2
- Top [11]: 92.96
- Bottom [12]: 15.94
- EC50 [12]: 1.5 nM
- LogEC50 [12]: -8.823
- Span [12]: 58.67
- Top [12]: 74.61
- EC50 (read-out: EC50 (best-fit value), cAMP inhibition, D295A-1 (run 1)): 16 nM
- EC50 (read-out: EC50 (best-fit value), cAMP inhibition, D295A-2 (run 2)): 15.9 nM
- EC50 (read-out: EC50 (best-fit value), cAMP inhibition, D295A-3 (run 3)): 18.1 nM
- EC50 (read-out: EC50 (best-fit value), cAMP inhibition, F272A-1 (run 1)): 17.7 nM
- EC50 (read-out: EC50 (best-fit value), cAMP inhibition, F272A-2 (run 2)): 26.7 nM
- EC50 (read-out: EC50 (best-fit value), cAMP inhibition, F272A-3 (run 3)): 145 nM
- EC50 (read-out: EC50 (best-fit value), cAMP inhibition, F294A-1 (run 1)): 3.57 nM
- EC50 (read-out: EC50 (best-fit value), cAMP inhibition, F294A-2 (run 2)): 4.21 nM
- EC50 (read-out: EC50 (best-fit value), cAMP inhibition, F294A-3 (run 3)): 0.15 nM
- EC50 (read-out: EC50 (best-fit value), cAMP inhibition, K291A-1 (run 1)): 4.34 nM
- EC50 (read-out: EC50 (best-fit value), cAMP inhibition, K291A-2 (run 2)): 1.48 nM
- EC50 (read-out: EC50 (best-fit value), cAMP inhibition, K291A-3 (run 3)): 6.95 nM
- EC50 (read-out: EC50 (best-fit value), cAMP inhibition, N276A-1 (run 1)): 0.993 nM
- EC50 (read-out: EC50 (best-fit value), cAMP inhibition, N276A-2 (run 2)): 2.19 nM
- EC50 (read-out: EC50 (best-fit value), cAMP inhibition, N276A-3 (run 3)): 1.77 nM
- EC50 (read-out: EC50 (best-fit value), cAMP inhibition, Y302A-1 (run 1)): 16.8 nM
- EC50 (read-out: EC50 (best-fit value), cAMP inhibition, Y302A-2 (run 2)): 12.5 nM
- EC50 (read-out: EC50 (best-fit value), cAMP inhibition, Y302A-3 (run 3)): 6.08 nM
- EC50 (read-out: EC50 (best-fit value), F208A-1 (run 1)): 14.9 nM
- EC50 (read-out: EC50 (best-fit value), F208A-2 (run 2)): 98.5 nM
- EC50 (read-out: EC50 (best-fit value), F208A-3 (run 3)): 79.3 nM
- EC50 (read-out: EC50 (best-fit value), F265A-1 (run 1)): 11.3 nM
- EC50 (read-out: EC50 (best-fit value), F265A-2 (run 2)): 14.7 nM
- EC50 (read-out: EC50 (best-fit value), F265A-3 (run 3)): 9.82 nM
- EC50 (read-out: EC50 (best-fit value), P220A-1 (run 1)): 3.5 nM
- EC50 (read-out: EC50 (best-fit value), P220A-2 (run 2)): 3.09 nM
- EC50 (read-out: EC50 (best-fit value), P220A-3 (run 3)): 3.08 nM
- EC50 (read-out: EC50 (best-fit value), W269A-1 (run 1)): 0.601 nM
- EC50 (read-out: EC50 (best-fit value), W269A-2 (run 2)): 0.503 nM
- EC50 (read-out: EC50 (best-fit value), W269A-3 (run 3)): 0.604 nM
- EC50 (read-out: EC50 (best-fit value), Y205A-1 (run 1)): 0.344 nM
- EC50 (read-out: EC50 (best-fit value), Y205A-2 (run 2)): 0.915 nM
- EC50 (read-out: EC50 (best-fit value), Y205A-3 (run 3)): 0.18 nM
